Measurements: patent US20030216571A1, “Tricyclic compounds” (priority 1999, published 2003)

Legend:
[1] = tested on: Leukotriene D4 induced respiratory constriction; assay: Leukotriene D4 induced respiratory constriction test; format: in vivo; details: p.o. 1 hr before i.v. LTD4; anesthetized Hartley male guinea pigs; respiratory inner pressure
Description: Leukotriene D4 Induced Respiratory Constriction Test
Respiratory constriction was measured by modifying the method of Konzett and Rossler (Arch. Exp. Pathol. Pharmakol., 195, pp. 71-74 (1940)). Hartley male guinea pigs (400 to 500 g body weight, Nippon SLC Co.) were anesthetized with pentobarbital (50 mg/kg, s.c.), and a cannula was inserted into the trachea to carry out artificial ventilation with an artificial ventilator (manufactured by Harvard Co., Model 683). An inner pressure of the respiratory tract was measured by a differential pressure transducer (Nihon Koden, TP-603T) connected to the respiratory cannula and it is used as an index of respiratory constriction.
LTD4 (0.03, 0.06, 0.13, 0.25, 0.5, 1 and 2 μg/kg, Sigma Co.) was intravenously administered from a cannula inserted into the right jugular vein from a low dose with an interval of 5 minutes to cause a respiratory constriction reaction and an increased amount of a respiratory inner pressure was measured. Test compound was suspended in 0.5% sodium carboxymethyl cellulose aqueous solution, and orally administered 1 hour before administration of LTD4. Animals were fasted for 24 hours before administration of the Test compound.
A2=(Dose of Compound administered)/{(ED50 of group to which Compound was added)/(ED50 of control group)−1}

Leukotriene D4 receptor = target: T1, Leukotriene D4 receptor (Cavia porcellus, UniProt Q2NNR5); assay: Leukotriene D4 receptor binding test; details: binding inhibition constant (Ki) vs [3H] LTD4 0.2 nM; lung cell membrane fraction from guinea pigs; 25° C. for 30 minutes; read-out: pKi value (converted)
T1 construct: As a receptor sample, a lung cell membrane fraction from guinea pigs was used; from tissue; host or cells: lung membrane fraction of Hartley male guinea pigs
T1 sequence (Q2NNR5 1-340): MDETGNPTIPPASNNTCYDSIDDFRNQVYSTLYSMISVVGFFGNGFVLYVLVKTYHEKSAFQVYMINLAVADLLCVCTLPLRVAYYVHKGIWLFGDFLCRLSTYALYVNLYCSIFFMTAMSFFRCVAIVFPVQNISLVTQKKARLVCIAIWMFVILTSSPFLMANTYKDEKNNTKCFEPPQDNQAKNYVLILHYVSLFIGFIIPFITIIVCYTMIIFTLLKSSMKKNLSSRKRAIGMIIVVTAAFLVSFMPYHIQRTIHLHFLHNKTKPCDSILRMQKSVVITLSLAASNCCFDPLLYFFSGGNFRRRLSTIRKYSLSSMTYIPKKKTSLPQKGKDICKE
Description: Leukotriene D4 Receptor Binding Test
As a receptor sample, a lung cell membrane fraction from guinea pigs was used. Preparation of the membrane fraction was carried out according to the method of Ahn et al. (Eur. J. Pharmacol., 127, 153-155 (1986)). Lungs of Hartley male guinea pigs (400 to 500 g body weight, Nippon SLC Co.) were extracted, and perfused with a physiological saline, and then, adding 10 mM of PIPES, 10 mM of MgCl2 and 10 mM of CaCl2 buffer (pH 7.5) to the lung tissue and the mixture was homogenized. This homogenate was centrifuged at 70,000 xg for 10 minutes to obtain a membrane fraction.
Leukotriene D4 (LTD4) recepter binding test was carried out according to the method of Aharony, et al. (J. Pharmacol. Expl.Ther., 243, 921-926 (1987)). To 0.42 mg of the receptor sample were added 10 mM of PIPES, 10 mM of MgCl2 and 10 mM of CaCl2 buffer (pH 7.5) to make the total amount of 480 μl, and 10 μl of [^3H] LTD4 (NEN Life Science Products Co.) and 10 μl of a Test compound in dimethylsulfoxide were added to the mixture, and the resulting mixture was incubated at 25° C. for 30 minutes. The mixtures thus incubated were filtered through a glass fiber filter (Whatman Co., GF/C) using cell harvester (Brandel Co., M-30R). The filter were washed with 10 mM of Tris. and 100 mM of NaCl buffer (pH 7.5), and 5 ml of a liquid scintillator (NACALAI TESQUE INC., clearsol I), and radioactivity was measured by a liquid scintillation analyzer (Packard Co., 2000CA). When a dissociation constant (Kd) of LTD4 was to be obtained, [^3H] LTD4 with 0.03 to 0.5 nM was used, and 1 μM of non-radioactive LTD4 was added. When a binding inhibition constant (Ki) of the Test compound is to be meaured, [^3H] LTD4 with 0.2 nM was used. Kd and Ki are calculated according to the method of Bennett et al. (Neurotransmitter Receptor Binding, 2nd ed., edited by H. I. Yamamura et al., pp. 61-89, Raven Press (1985)).

Row | SMILES | A2 (dose of Test compound required for shifting two-times the LTD4 dose-reaction curve of control group to higher dose side) [1] [µg/kg] | melting point [°C] | Ki (Leukotriene D4 receptor) [nM]
1 | O=C([O-])CCSC1c2ccccc2COc2ccc(/C=C/c3ccc4c(F)cc(F)cc4n3)cc21.[Na+] (stereo not drawn) [Example 32 (b), Sodium 3-{[2-[(E)-2-(5,7-difluoro-2-quinolinyl)ethenyl]-6,11-dihydrodibenz[b,e]oxepin-11-yl]thio}propionate] | 9.4 | 210 to 213 | 0.794
2 | O=C([O-])CCSC1c2ccccc2COc2ccc(/C=C/c3ccc4c(F)c(F)c(F)cc4n3)cc21.[Na+] (stereo not drawn) [Example 34 (b), Sodium 3-{[2-[(E)-2-(5,6,7-trifluoro-2-quinolinyl)ethenyl]-6,11-dihydrodibenz[b,e]oxepin-11-yl]thio}propionate] | 7.7 | 235 to 237 | 0.631
3 | O=C([O-])CC1(CSC2c3ccccc3COc3ccc(/C=C/c4ccc5c(F)c(F)c(F)cc5n4)cc32)CC1.[Na+] (stereo not drawn) [Example 35 (b), Sodium {1-[[2-[(E)-2-(5,6,7-trifluoro-2-quinolinyl)ethenyl]-6,11-dihydrodibenz[b,e]oxepin-11-yl]thiomethyl]cyclopropyl}acetate] | 6.6 | 195 to 198 | 0.398
4 | O=C([O-])CCSC1c2ccccc2CCc2ccc(/C=C/c3ccc4cc(F)c(F)cc4n3)cc21.[Na+] (stereo not drawn) [Example 40, Sodium 3-{[3-[(E)-2-(6,7-difluoro-2-quinolinyl)ethenyl]-10,11-dihydro-5H-dibenz[a,d]cyclohepten-5-yl]thio}propionate] | 8.8 | 179 to 182 | 0.794
5 | C[C@H](CSC1c2ccccc2COc2ccc(/C=C/c3ccc4cc(F)c(F)cc4n3)cc21)C(=O)[O-].[Na+] (stereo partly drawn) [Example 43, Sodium 3-{[2-[(E)-2-(6,7-difluoro-2-quinolinyl)ethenyl]-6,11-dihydrodibenz[b,e]oxepin-11-yl]thio}-2-(S)-methyl-propionate] | 1.3 | 193 to 216 | 0.126
6 | C[C@@H](CSC1c2ccccc2COc2ccc(/C=C/c3ccc4cc(F)c(F)cc4n3)cc21)C(=O)[O-].[Na+] (stereo partly drawn) [Example 44, Sodium 3-{[2-[(E)-2-(6,7-difluoro-2-quinolinyl)ethenyl]-6,11-dihydrodibenz[b,e]oxepin-11-yl]thio}-2-(R)-methylpropionate] | 5 | 196 to 220 | 0.2
7 | O=C([O-])CCSC1c2cc(/C=C/c3ccc4cc(F)c(F)cc4n3)ccc2COc2ccccc21.[Na+] (stereo not drawn) [Example 54 (b), Sodium 3-{[9-[(E)-2-(6,7-difluoro-2-quinolinyl)ethenyl]-6,11-dihydrodibenz[b,e]oxepin-11-yl]thio}propionate] | 2.3 | > 300 | 0.126
